Patent publication US20120135078A1, “ANGINA TREATMENT” (University of Dindee, priority 2009, published 2012)

Experiments:
[1] = cited from earlier work
[2] = Serum analysis (biochemical data) in the cross-over study; assay type: in vivo, human; conditions: mean ± SD; after allopurinol treatment; p<0.001 vs baseline and placebo
Procedure: (§1) Eligible participants were then randomised to either allopurinol up to 300 mg BID or matching placebo for 6 weeks. The dose of allopurinol started at 100 mg OD for the first week, 300 mg OD for the second week and 300 mg BID for the remaining treatment period.
(§2) A p value <0.05 was considered significant.

[3] = tested on: patients with chronic stable angina; experiment: Haemodynamic responses during exercise testing
[4] = tested on: patients with chronic stable angina; experiment: Treadmill exercise tolerance test (full Bruce protocol), randomised double-blind placebo-controlled cross-over study; assay type: in vivo, human
Procedure: The trial was carried out at Ninewells Hospital, UK. It was approved by the Fife, Forth Valley and Tayside Research Ethics Committee and was conducted in accordance with the Declaration of Helsinki. Signed, written informed consent was obtained from each participant.
Individuals aged 18 to 85 years were eligible if they had angiographically documented coronary artery disease, a positive exercise tolerance test (ETT) and a history of symptoms of chronic, stable, effort-induced angina for ≧2 months. Concomitant antianginal medication was allowed.
Exclusion criteria included myocardial infarction ≧2 months, coronary revascularization (percutaneous or CABG) ≧6 months, Left Ventricular Ejection Fraction <45%, estimated GFR <45 ml/min, significant valvular pathology, already on allopurinol, atrial arrhythmias or ECG abnormalities interfering with ST-segment interpretation.
Eligible participants had to manifest ischaemia (ST depression ≧1mm compared to resting ECG) on both visits with a between visit difference in time to ST depression of less than 15%. Otherwise, a third ETT was performed and there had to be a difference of less than 15% between the second and third test.
as §1
The ECG analysis was performed by two independent observers who were both blind to the treatments. The results of each assessment were virtually identical.
as §2

angina patients = conditions: references 1-7; cited from earlier work
[5] = mean ± SD, Stage 1 of Bruce protocol
[6] = median, after 6 weeks allopurinol up to 300 mg BID (600 mg/day) added to existing anti-anginal medication

Oc1ncnc2[nH]ncc12 [Allopurinol, 1,5-dihydro-4H-pyrazolo[3,4-d]pyrimidin-4-one]
solubility in chloroform and in ether ([1]; chloroform, ether): practically insoluble | solubility in dilute solutions of alkali hydroxides ([1]; dilute solutions of alkali hydroxides): dissolves | solubility in water and alcohol ([1]; water and alcohol): only slightly soluble | serum uric acid [2]: 0.14 ± 0.05 mmol/L | systolic blood pressure change at the end of the first stage of the Bruce protocol ([3]; change from baseline, p=0.026 vs placebo): −6.1 mmHg | HR Stage 1 [3, 5]: 95.6 ± 13.5 bpm | RPP (Rate Pressure Product) Stage 1 [3, 5]: 12756 ± 2798 bpm · mmHg | dBP Stage 1 [3, 5]: 71.7 ± 10.1 mmhg | sBP Stage 1 [3, 5]: 135.5 ± 19.3 mmHg | HR Peak exercise ([3]; mean ± SD, peak exercise): 118.5 ± 15.2 bpm | RPP (Rate Pressure Product) Peak Exercise ([3]; mean ± SD, peak exercise): 18842 ± 3791 bpm · mmHg | dBP Peak Exercise ([3]; mean ± SD, peak exercise): 75.4 ± 11.9 mmhg | sBP Peak exercise ([3]; mean ± SD, peak exercise): 158.7 ± 22.4 mmHg | HR Resting ([3]; mean ± SD, resting): 63.8 ± 8.6 bpm | RPP (Rate Pressure Product) Resting ([3]; mean ± SD, resting): 7910 ± 1577 bpm · mmHg | dBP Resting ([3]; mean ± SD, resting): 72.2 ± 9.9 mmhg | sBP Resting ([3]; mean ± SD, resting): 123.7 ± 16.2 mmHg | absolute increase in median time to ST depression ([4]; allopurinol vs baseline): 66 s | increase in median time to ST depression (percent) ([4]; allopurinol vs baseline): 28% | median exercise time higher on allopurinol than on placebo or baseline ([4]; difference of medians): 86 to 92 s | median exercise time higher on allopurinol than on placebo or baseline (percent) ([4]; difference of medians): 30% | increase in time to ST depression by geometric mean ([4]; geometric mean): 22% | Time to ST Depression [4, 6]: 298 s | Total Exercise Time [4, 6]: 393 s | Time to Symptoms ([4]; median, after 6 weeks allopurinol up to 300 mg BID added to existing anti-anginal medication): 304 s

CC(C)NCC(O)COc1ccc(CC(N)=O)cc1 (stereo not shown) [atenolol]
increase in time to ST depression, comparable published figures (angina patients): around 50 seconds | increase in time to ST depression, comparable published figures (percent) (angina patients): 15%

COc1cc2c(cc1OC)CC(=O)N(CCCN(C)C[C@H]1Cc3cc(OC)c(OC)cc31)CC2 [ivabradine]
increase in time to ST depression, comparable published figures (angina patients): 46 s | increase in time to ST depression, comparable published figures (percent) (angina patients): 13.5%

COc1ccccc1OCC(O)CN1CCN(CC(=O)Nc2c(C)cccc2C)CC1 (stereo not shown) [ranolazine]
increase in time to ST depression, comparable published figures (angina patients): around 50 seconds | increase in time to ST depression, comparable published figures (percent) (angina patients): 15%
